The values below come from US20080103158A1, “METHODS FOR TREATING DELAYING THE PROGRESSION OF ALZHEIMER'S DISEASE WITH HETEROCYCLIC COMPOUNDS” (ZENYAKU KOGYO KABUSHIKI KAISHA, priority 2006, published 2008).

`O=C1N=C2C=CC=CN2C1(Cc1ccc([N+](=O)[O-])cc1)Cc1ccc([N+](=O)[O-])cc1` registered a melting point greater than 300 °C.

Take `CC(C)OC1=CC=CN2C1=NC(=O)C2(Cc1ccccc1)Cc1ccccc1` [Compound 2, 3,3-dibenzyl-8-isopropoxyimidazo[1,2-a]pyridin-2(3H)-one]: the melting point was in the range of 247 to 248 °C.

`COC1=CC=CN2C1=NC(=O)C2(Cc1ccccc1)Cc1ccccc1` [Compound 3, 3,3-dibenzyl-8-methoxyimidazo[1,2-a]pyridin-2(3H)-one] showed a melting point of 274 to 275 °C.

With `O=C1N=C2C(OCC3CC3)=CC=CN2C1(Cc1ccccc1)Cc1ccccc1` [Compound 4, 3,3-dibenzyl-8-cyclopropylmethyloxy-imidazo[1,2-a]pyridin-2(3H)-one], the melting point lay in the range of 236 to 237 °C.

Turning to `O=C1N=C2C=CC(Cl)=CN2C1(Cc1ccccc1)Cc1ccccc1` [Compound 5, 3,3-dibenzyl-6-chloroimidazo[1,2-a]pyridin-2(3H)-one], the melting point fell in the range of 246 to 248 °C.

Molecule `C=CCOC1=CC=CN2C1=NC(=O)C2(Cc1ccccc1)Cc1ccccc1` [Compound 6, 8-allyloxy-3,3-dibenzylimidazo[1,2-a]pyridin-2(3H)-one] showed a melting point of 214 to 215 °C.

The molecule `O=C1N=C2C(OCc3ccccc3)=CC=CN2C1(Cc1ccccc1)Cc1ccccc1` [Compound 7, 3,3-dibenzyl-8-benzyloxyimidazo[1,2-a]pyridin-2(3H)-one] had a melting point of 240 to 241 °C.

As to `CC(c1ccccc1)C1(C(C)c2ccccc2)C(=O)N=C2C(OCc3ccccc3)=CC=CN21` (stereo not drawn) [Compound 8, 8-benzyloxy-3,3-bis(1-phenylethyl)imidazo[1,2-a]pyridin-2(3H)-one], the melting point lay in the range of 234 to 235 °C.

Consider `CC1=CC2=NC(=O)C(Cc3ccccc3)(Cc3ccccc3)N2C(C)=C1` [Compound 10, 3,3-dibenzyl-5,7-dimethylimidazo[1,2-a]pyridin-2(3H)-one], for which the melting point lay in the range of 237 to 238 °C.

With `O=C1N=C2C(OC3CCCC3)=CC=CN2C1(Cc1ccccc1)Cc1ccccc1` [Compound 12, 3,3-dibenzyl-8-cyclopentyloxyimidazo[1,2-a]pyridin-2(3H)-one], the melting point lay in the range of 268 to 269 °C.

Take `O=C1N=C2C(Cl)=CC(Cl)=CN2C1(Cc1ccccc1)Cc1ccccc1` [Compound 13, 3,3-dibenzyl-6,8-dichloroimidazo[1,2-a]pyridin-2(3H)-one]: the melting point is 260 to 261 °C.

`O=C1N=C2C(Cl)=CC(C(F)(F)F)=CN2C1(Cc1ccccc1)Cc1ccccc1` [Compound 14, 3,3-dibenzyl-8-chloro-6-trifluoromethylimidazo[1,2-a]pyridin-2(3H)-one]: the melting point is 234 to 236 °C.

Regarding `CC1=CC=CN2C1=NC(=O)C2(Cc1ccncc1)Cc1ccncc1` [Compound 16, 8-methyl-3,3-bis(4-pyridylmethyl)imidazo[1,2-a]pyridin-2(3H)-one], the melting point is 228 to 230 °C.

Molecule `O=C1N=C2C=CC=CN2C1(Cc1ccc(F)cc1)Cc1ccc(F)cc1` [Compound 17, 3,3-bis(4-fluorobenzyl)imidazo[1,2-a]pyridin-2(3H)-one] returned a melting point of 290 to 292 °C.

As to `CN(C)c1ccc(CC2(Cc3ccc(N(C)C)cc3)C(=O)N=C3C=CC=CN32)cc1` [Compound 18, 3,3-bis(4-dimethylaminobenzyl)imidazo[1,2-a]pyridin-2(3H)-one], the melting point was greater than 300 °C.

As to `O=C1N=C2C=CC=CN2C1(Cc1cccc(Cl)c1)Cc1cccc(Cl)c1` [Compound 19, 3,3-bis(3-chlorobenzyl)imidazo[1,2-a]pyridin-2(3H)-one], the melting point was 271 to 272 °C.

In turn, `COc1ccc(CC2(Cc3ccc(OC)cc3)C(=O)N=C3C=CC=CN32)cc1` [Compound 20, 3,3-bis(4-methoxybenzyl)imidazo[1,2-a]pyridin-2(3H)-one] registered a melting point of 248 to 251 °C.

Regarding `O=C1N=C2C=CC=CN2C1(Cc1ccc(-c2ccccc2)cc1)Cc1ccc(-c2ccccc2)cc1` [Compound 21, 3,3-bis(4-biphenylmethyl)imidazo[1,2-a]pyridin-2(3H)-one], the melting point is greater than 300 °C.

`N#Cc1ccc(CC2(Cc3ccc(C#N)cc3)C(=O)N=C3C=CC=CN32)cc1` [Compound 22, 3,3-bis(4-cyanobenzyl)imidazo[1,2-a]pyridin-2(3H)-one]: the melting point was 294 °C (dec.).

Molecule `O=C1N=C2C=CC=CN2C1(Cc1ccc(O)cc1)Cc1ccc(O)cc1` [Compound 23, 3,3-bis(4-hydroxybenzyl)imidazo[1,2-a]pyridin-2(3H)-one] registered a melting point of 276.5 to 277.5 °C.

Regarding `C=CCC1(CC=C)C(=O)N=C2C=CC=CN21` [Compound 24, 3,3-diallylimidazo[1,2-a]pyridin-2(3H)-one], the melting point is 64 to 66 °C.

Regarding `C=CCC1(CC=C)C(=O)N=C2C(OCc3ccccc3)=CC=CN21` [Compound 25, 3,3-diallyl-8-benzyloxyimidazo[1,2-a]pyridin-2(3H)-one], the melting point fell in the range of 160 to 162 °C.

Take `O=C1N=C2C=CC=CN2C1(CCCc1ccccc1)CCCc1ccccc1` [Compound 26, 3,3-bis(3-phenyl-1-propyl)imidazo[1,2-a]pyridin-2(3H)-one]: the melting point was 227 to 228 °C.

For `O=C1N=C2C=CC=CN2C12Cc1cccc3cccc(c13)C2` [Compound 27, spiro[imidazo[1,2-a]pyridin-2(3H)-one-3,2′-[2,3]dihydrophenarene]], the melting point is 262 °C (dec.).

In the case of `O=C1N=C2C=CC=CN2C1(Cc1ccc(F)cc1F)Cc1ccc(F)cc1F` [Compound 28, 3,3-bis(2,4-difluorobenzyl)imidazo[1,2-a]pyridin-2(3H)-one], the melting point is 269 to 271 °C.

On to `CCCC1(CCC)C(=O)N=C2C=CC=CN21` [Compound 29, 3,3-dipropylimidazo[1,2-a]pyridin-2(3H)-one], for which the melting point was in the range of 73 to 75 °C.

Regarding `O=C1N=C2C=CC=CN2C1(Cc1cccs1)Cc1cccs1` [Compound 30, 3,3-bis(2-thienylmethyl)imidazo[1,2-a]pyridin-2(3H)-one], the melting point was 289.5 °C (dec.).

On to `CC(=O)NC1=CC=CN2C1=NC(=O)C2(Cc1ccccc1)Cc1ccccc1` [Compound 31, 8-acetylamino-3,3-dibenzylimidazo[1,2-a]pyridin-2(3H)-one], for which the melting point lay within 235 to 237 °C.

Consider `O=C1N=C2C=CC=CN2C1(Cc1ccco1)Cc1ccco1` [Compound 32, 3,3-bis(2-furylmethyl)imidazo[1,2-a]pyridin-2(3H)-one], for which the melting point is 205 °C (dec.).

`CC1(C)C(=O)N=C2C=CC=CN21` [Compound 33, 3,3-dimethylimidazo[1,2-a]pyridin-2(3H)-one]: the melting point lay within 200 to 202 °C.

`CCCCC1(CCCC)C(=O)N=C2C=CC=CN21` [Compound 34, 3,3-dibutylimidazo[1,2-a]pyridin-2(3H)-one] showed a melting point of 100.5 to 102 °C.

For the molecule `C#CCC1(CC#C)C(=O)N=C2C=CC=CN21` [Compound 35, 3,3-di(2-propinyl)imidazo[1,2-a]pyridin-2(3H)-one], the melting point fell in the range of 172 to 175 °C.

Regarding `O=C1N=C2C(O)=CC=CN2C1(Cc1ccccc1)Cc1ccccc1` [Compound 36, 3,3-dibenzyl-8-hydroxyimidazo[1,2-a]pyridin-2(3H)-one], the melting point fell in the range of 283 to 285 °C.
